Laboratory results taken from US4591637A, “Open chain-morpholino adriamycins” (priority 1985, dated 1986).
Like-named read-outs stand apart in the source and are kept apart here.

How the values were obtained:
[1] = physchem; type: physicochemical; conditions: octanol-phosphate buffer, pH 7.4
Protocol: (§1) The compounds prepared in Examples 1-5 were tested for in vitro DNA and RNA synthesis inhibition activity and in vivo for ability to increase survival time in mice injected with P-388 leukemia cells as described above. The relative solubility in octanol and phosphate buffer, expressed as log10 p, was also determined, as well as the ΔTm of isolated helical DNA synthesized in the in vitro test.

[2] = tested on: RNA synthesis in L-1210 Cells; assay: inhibition of RNA synthesis in L1210 cells in vitro; type: cell-based; conditions: Mus musculus
Protocol: (§2) An in vitro test measured inhibition of DNA and RNA synthesis in L-1210 Cells in the method described by Tong, G., et al, J Med Chem (1976) 19:395. ED50 levels (the dose at which 50% inhibition occurs) were computed and ED50 ratios for DNA/RNA determined.
as §1

[3] = tested on: isolated helical DNA; assay: ΔTm of isolated helical DNA; type: binding
Protocol: as §1

[4] = tested on: DNA synthesis in L-1210 Cells; assay: inhibition of DNA synthesis in L1210 cells in vitro; type: cell-based; conditions: Mus musculus
Protocol: as §2, §1

[5] = tested on: P-388 leukemia; assay: survival time of mice injected with P-388 leukemia cells; type: in vivo; conditions: mouse P388, qd 1, 10 mg/kg; T/C = treated survival time/untreated survival time×100
Protocol: Survival times and % T/C (treated survival time/untreated survival time×100) were determined, as well as dosage levels required.
The relative solubility in octanol and phosphate buffer, expressed as log10 p, was also determined, as well as the ΔTm of isolated helical DNA synthesized in the in vitro test.

[6] = read-out: log10 p, octanol-phosphate buffer at pH 7.4
[7] = L1210 cells, RNA synthesis, ED50 = dose at which 50% inhibition occurs, read-out: L1210 cells inhib of synth, ED50, RNA
[8] = L1210 cells, DNA synthesis, ED50 = dose at which 50% inhibition occurs, read-out: L1210 cells inhib of synth, ED50, DNA
[9] = L1210, read-out: L1210 cells inhib of synth, ED50, RNA
[10] = L1210, read-out: L1210 cells inhib of synth, ED50, DNA

Row | SMILES | logD [1, 6] | IC50 [2, 7] | ΔTm of isolated helical DNA [3] | IC50 [4, 8] | logD [1] | Mouse P388 qd 1, % T/C (mg/kg) [5] | IC50 [2, 9] | IC50 [4, 10]
1 | COc1cccc2c1C(=O)c1c(O)c3c(c(O)c1C2=O)C[C@@](O)(C(C)=O)C[C@@H]3O[C@H]1C[C@H](N)[C@H](O)[C@H](C)O1 [Daunorubicin, daunorubicin, reference compound] | 0.66 | 330 nM | 10.5 °C | 660 nM |  |  |  | 
2 | COc1cccc2c1C(=O)c1c(O)c3c(c(O)c1C2=O)C[C@@](O)(C(=O)CO)C[C@@H]3O[C@H]1C[C@H](N)[C@H](O)[C@H](C)O1 [Doxorubicin, doxorubicin, reference compound] |  | 580 nM | 12.8 °C | 1600 nM | 0.07 | 258 % T/C |  | 
3 | COCC(C#N)N[C@H]1C[C@H](O[C@H]2C[C@](O)(C(C)=O)Cc3c(O)c4c(c(O)c32)C(=O)c2c(OC)cccc2C4=O)O[C@@H](C)[C@H]1O (stereo partly drawn) [N--(1-cyano-2-methoxy-ethyl)daunorubicin, N-(1-cyano-2-methoxyethyl)Dau] | 2.64 |  |  |  |  |  | 510 nM | 510 nM
4 | COCC(C#N)N[C@H]1C[C@H](O[C@H]2C[C@](O)(C(=O)CO)Cc3c(O)c4c(c(O)c32)C(=O)c2c(OC)cccc2C4=O)O[C@@H](C)[C@H]1O (stereo partly drawn) [N--(1-cyano-2-methoxy-ethyl)doxorubicin, N-(1-cyano-2-methoxyethyl)doxorubicin] |  |  | 12.5 °C |  |  |  | 400 nM | 800 nM
5 | COc1cccc2c1C(=O)c1c(O)c3c(c(O)c1C2=O)C[C@@](O)(C(C)=O)C[C@@H]3O[C@H]1C[C@H](NCC#N)[C@H](O)[C@H](C)O1 [N--(cyanomethyl)-daunorubicin, N-(cyanomethyl)daunorubicin] |  |  | 11.7 °C |  |  |  | 820 nM | 1750 nM
6 | COc1cccc2c1C(=O)c1c(O)c3c(c(O)c1C2=O)C[C@@](O)(C(=O)CO)C[C@@H]3O[C@H]1C[C@H](NCC#N)[C@H](O)[C@H](C)O1 [N--(cyanomethyl)-doxorubicin] |  |  | 13.9 °C |  |  |  | 290 nM | 1200 nM
